These results are taken from a melting point compilation (Tetko et al.).

Turning to `COC(=O)c1sc2c(c1N)CSc1ccc(Cl)cc1-2`, the melting point (in general, the temperature, or range, at which the solid turns liquid) worked out at 120 °C.

Consider `C=Cc1ccc(CC)cc1`, for which the melting point was -49.7 °C.

The compound `OCC12CC3CC(CC(C3)C1)C2` registered a melting point of 140 °C.

In the case of `CC12CCC3C(CCC4CC(=O)CCC43C)C1CC(=O)C2` (stereo not given), the melting point stood at 163 °C.

Regarding `Cc1ccc(O)cc1`, the melting point worked out at 35.5 °C.

`N=c1sc(C(=O)c2cccs2)nn1-c1cccc(C(F)(F)F)c1` came in with a melting point of 185 °C.

On to `Cl[Si](Cl)(Cl)CCC12CC3CC(CC(C3)C1)C2`, for which the melting point came out at 36 °C.

As for `Cc1cccc(/N=N/c2c(C)[nH]c(=S)c(C#N)c2C)c1C`, the melting point is 259 °C.

Take `Brc1ccc(-c2ccco2)cc1`: the melting point fell in the range of 83 to 84 °C.

Compound `Cc1c(C(=O)c2c[nH]n(C)c2=O)ccc(S(C)(=O)=O)c1C1=NOCC1` yielded a melting point of 222 °C.

The compound `CCCCCCC(O)CO` (stereo not given) had a melting point of 36 to 38 °C.

`CCOC(=O)C(C#N)=Cc1ccc(-c2ccccc2Br)o1` displayed a melting point of 123 to 124 °C.

For `O=C(O)c1sccc1C1OCCO1`, the melting point lay in the range of 142 to 144 °C.

As to `CC(=O)c1ccc(N=C=O)cc1`, the melting point came to 34 °C.

In the case of `O=[N+]([O-])c1cc(/C=N\c2ccccc2)ccc1/C=N/c1ccccc1`, the melting point lay within 133 to 134 °C.

In the case of `CC(=O)N(C)C(=O)COC(=O)c1ccccc1`, the melting point is 102 °C.

Take `COc1cccc(C=C(C(=O)O)C(=Cc2cccc(OC)c2)C(=O)O)c1`: the melting point amounted to 182 °C.

On to `N#C/C(=N\Nc1ccccc1[N+](=O)[O-])c1nc2ccccc2[nH]1`, for which the melting point was 270 °C.

`CC1=Nc2ccc3ccccc3c2C1(C)C` showed a melting point of 117 °C.

`N#Cc1cc(Cl)nc(Cl)c1`: the melting point was 96 to 97 °C.

For the compound `Cn1c(C=O)cc2sccc21`, the melting point lay within 63 to 64 °C.

Turning to `O=C(O)CCc1cccc(Cl)c1`, the melting point is 72 to 74 °C.

With `O=C(O)C=Cc1cc(F)cc(F)c1`, the melting point came to 205 °C.

`CC(=O)c1ccn(S(=O)(=O)c2ccccc2)c1` gave a melting point of 89 to 92 °C.

In the case of `O=[N+]([O-])c1ccc(NN=Cc2cccc3c(Br)cccc23)c([N+](=O)[O-])c1`, the melting point worked out at 222 °C.

Take `COc1c(F)cc(O)cc1F`: the melting point turned out to be 69 °C.

On to `NC(=O)[C@@H]1CC=CC[C@H]1N` (relative stereo), for which the melting point fell in the range of 163 to 167 °C.

Compound `O=C(NC(CO)C(=O)OCc1ccccc1)OCc1ccccc1` (stereo not given) registered a melting point of 83 °C.

As to `CCCC(=O)N(C)C`, the melting point is -40 °C.

`O=C(O)CN1C(=O)CSC1=S` yielded a melting point of 147 °C.

In turn, `CC(=O)Nc1ccc(S)cc1` had a melting point of 149 to 154 °C.

For `Clc1cc(Cl)c2c(c1)Oc1cc(Cl)c(Cl)cc1O2`, the melting point is 194 °C.

Compound `CC(=O)C1CCC2C3CCC4=CC(=O)CCC4(C)C3C(=O)CC12C` (stereo not given) had a melting point of 172 °C.

`CC(=NO)c1ccc(F)cc1` had a melting point of 72 to 74 °C.

`CN(C)c1ccc(C=CC#N)cc1` registered a melting point of 165 to 168 °C.

Compound `N#CCSc1ccc2ccccc2c1` showed a melting point of 83 to 86 °C.

On to `C=CCOC(=O)OCCOCCOC(=O)OCC=C`, for which the melting point is -4 °C.

The compound `COc1ccccc1OC` showed a melting point of 22.5 °C.

For `O=C(O)CCCCCCCCCCCCCCC(=O)O`, the melting point is 124 to 126 °C.

`Cc1c(F)cccc1CC#N` gave a melting point of 47 °C.

In turn, `CCON=C(CC)C1=C(O)CC(c2c(C)cc(C)cc2C)CC1=O` (stereo not given) registered a melting point of 110 °C.

As to `O=C1C=CC(=O)C1`, the melting point came to 37 °C.

`CCCCCCCCCCCC(=O)CCCC` displayed a melting point of 37 °C.

In the case of `CC12CCC3c4ccc(OC5CCCC5)cc4CCC3C1CC(O)C2O` (stereo not given), the melting point is 99 °C.

On to `O=C(F)c1ccccc1`, for which the melting point is -28 °C.

`CC1=CCCC1` gave a melting point of -126 °C.

`O=c1cc(C(F)(F)F)c2cc(Cl)c(O)cc2o1` had a melting point of 178 to 182 °C.

Regarding `CCCCC(=O)OC1(C(=O)CO)C(C)CC2C3CCC4=CC(=O)C=CC4(C)C3(F)C(O)CC21C` (stereo not given), the melting point was 184 °C.

Compound `Cc1cscc1S(=O)(=O)c1ccc(Cl)cc1` returned a melting point of 102 to 104 °C.

Compound `O=C(OCC(O)CO)c1ccccc1Nc1ccnc2c(C(F)(F)F)cccc12` (stereo not given) came in with a melting point of 180 °C.

As to `CCOC(=O)NNC(=O)OCC`, the melting point was 135 °C.

Take `CN(C)c1ccc(CCC2CCc3ccccc3N2C(=O)c2ccccc2)cc1` (stereo not given): the melting point came to 121 °C.

Compound `N#CC(=Cc1cccc(O)c1)C(=O)O` showed a melting point of 230 to 233 °C.

Regarding `CN(C)C(=O)C(c1ccccc1)C(O)c1ccccc1` (stereo not given), the melting point was found to be 176 °C.

Consider `CC1(C)CC(=O)CC(C)(C)N1`, for which the melting point was 36 °C.

In turn, `Cc1nnsc1-c1onc(C)c1C(=O)Cl` came in with a melting point of 66 to 70 °C.

Compound `C#CCN1C(=O)COc2cc(F)c(N3C(=O)C4=C(CCCC4)C3=O)cc21` showed a melting point of 203 °C.

Compound `COC(=O)CC1C(=O)NC(C)=C1C(=O)OC` (stereo not given) gave a melting point of 93 to 94 °C.

Consider `CS(=O)(=O)c1ccc(S(=O)(=O)Cl)cc1`, for which the melting point stood at 160 °C.

As for `COC(=O)C1=C(C)NC(C)=C(C(=O)OC)C1c1ccccc1`, the melting point was determined as 198 °C.

`COC(=O)c1cc(N)cc(O)c1` returned a melting point of 124 to 126 °C.

As for `O=C(O)COc1c(Cl)ccc(Cl)c1Cl`, the melting point worked out at 148 °C.

`Cc1cc(=O)n2nc(C(F)(F)F)nc2[nH]1` had a melting point of 214 °C.

`CCCCCCCCCCCCCCCC(=O)OCCO` returned a melting point of 51 °C.

Regarding `N#C/C(=N\Nc1cc(Cl)c(Cl)cc1Cl)c1nc(-c2ccc(Cl)cc2)cs1`, the melting point is 176 °C.

For the compound `FC(F)(F)c1cc(C(F)(F)F)[nH]n1`, the melting point was 82 to 84 °C.

`COc1ccc2ccccc2c1C#N` came in with a melting point of 94 to 98 °C.

As to `Nc1ncc([N+](=O)[O-])cn1`, the melting point stood at 237 °C.

In the case of `NC(=O)C(=O)O`, the melting point came out at 210 °C.

Consider `Cc1cccc(OCC(O)CNC(C)(C)C)c1C` (stereo not given), for which the melting point is 57 °C.

As for `C#C[C@@]1(O)CC[C@@H]2[C@@H]3CC[C@@H]4CC(=O)CC[C@]4(C)[C@H]3CC[C@@]21C`, the melting point fell in the range of 220 to 221 °C.

In turn, `NCCCCCN` displayed a melting point of 9 °C.

`O=[N+]([O-])c1ccc(C(Cl)=Cc2ccc(C=C(Cl)c3ccc([N+](=O)[O-])cc3[N+](=O)[O-])cc2)c([N+](=O)[O-])c1` had a melting point of 245 °C.

`Cn1c([N+](=O)[O-])cnc1C=Cc1ccnc(N)n1` displayed a melting point of 234 °C.

With `O=C1Cc2cc(O)ccc2O1`, the melting point was in the range of 190 to 195 °C.

`COC(=O)C1(C(=O)OC)Cc2ccc(C)cc2C(=O)O1`: the melting point lay within 120 to 121 °C.

Regarding `O=S(=O)(Cl)c1cc(Cl)ccc1F`, the melting point was 43 °C.

Compound `COc1ccc(NC(=O)C(C)=NNC(N)=S)cc1` returned a melting point of 234 °C.

In turn, `O=[N+]([O-])c1cccc(F)c1CBr` had a melting point of 52 °C.

Regarding `O=Cc1ccc(Cl)c([N+](=O)[O-])c1`, the melting point came to 63 °C.

Consider `CC(C)(C)OC(=O)N[C@H](CC(=O)O)Cc1ccncc1`, for which the melting point is 142 °C.

Compound `NS(=O)(=O)c1cccc(/C(=N\O)c2ccccc2)c1` registered a melting point of 155 °C.

On to `OC1OCC(Cc2ccc3c(c2)OCO3)C1Cc1ccc2c(c1)OCO2` (stereo not given), for which the melting point is 132 °C.

In turn, `CCCCCCCCCCCCCCCCCCOCC(O)CO` (stereo not given) returned a melting point of 70.5 °C.

For the compound `Nc1c([N+](=O)[O-])cccc1[N+](=O)[O-]`, the melting point worked out at 142 °C.

As for `CCCc1c(C(=O)O)cnn1-c1ccc(Cl)cc1`, the melting point is 116 to 119 °C.

As for `Nc1ccc(Cl)c(C(F)(F)F)c1`, the melting point is 37 °C.

In turn, `O=C(Nc1ccccc1)C(F)(F)F` gave a melting point of 86 to 90 °C.

As to `Cc1cc(C)c2c(c1)CC(C)(C)C(=O)OC2=O`, the melting point was 99 to 100 °C.

The compound `O=C1c2ccccc2C(=O)C1c1ccc2ccccc2n1` had a melting point of 241 °C.

With `O=C(Nc1nnc(-c2ccc(Cl)cc2)o1)c1ccc(F)cc1`, the melting point lay within 282 to 284 °C.

With `CC12C=CC(=O)C=C1CCC1C2CCC2(C)C(O)CCC12` (stereo not given), the melting point was found to be 165 °C.

Compound `O=C1Nc2ccc(I)cc2C1=O` had a melting point of 285 °C.

Compound `O=C1OC(=O)c2cc(F)ccc21` came in with a melting point of 75 to 78 °C.

The compound `Ic1cccc(Cn2cccn2)c1` returned a melting point of 51 to 54 °C.

`O=Cc1ccc(-c2ccc(C=O)cc2)cc1` returned a melting point of 148 °C.

As for `COc1nsc(Nc2ccc(Br)cc2)n1`, the melting point is 237 to 239 °C.

For `COC(=O)C1=C(C)NC(C)=C(C(=O)OC)C1c1ccc(OC)cc1`, the melting point is 173 to 177 °C.

Turning to `O=C(O)C1CC(=O)N(Cc2ccco2)C1` (stereo not given), the melting point fell in the range of 159 to 160 °C.

Compound `BrC1(c2ccccc2)c2ccccc2-c2ccccc21` returned a melting point of 97 °C.

`S=C1SCN(Cc2ccccc2)CN1Cc1ccccc1` yielded a melting point of 102 °C.

Turning to `COc1ccc(-c2ccc(C=O)s2)cc1`, the melting point fell in the range of 118 to 119 °C.

The compound `CC12CCC(O)CC1CCC1C2C(O)CC2(C)C(C3=CC(=O)OC3)CCC12O` (stereo not given) yielded a melting point of 280 °C.

With `CN(C)C(=O)COC1CCN(C(=O)OC(C)(C)C)CC1`, the melting point was determined as 58 °C.

Compound `CCCCSc1sc(C(=O)OCC)c2c1C(=O)CCC2` came in with a melting point of 70 to 73 °C.

`O=Cc1ncccc1F` came in with a melting point of 49 to 52 °C.

`CCOc1ccc(NS(=O)(=O)c2ccc(N)cc2)nn1` showed a melting point of 183 °C.

As for `Cc1ccc(N=Nc2cc(C(C)C)c(N=Nc3ccc(C)cc3)cc2C)cc1`, the melting point came to 140 °C.

In the case of `O=[N+]([O-])c1ccc(O)c([N+](=O)[O-])c1`, the melting point was determined as 116 °C.

Compound `CSc1cc(-c2ccc(Oc3ccccc3)cc2)n[nH]1` displayed a melting point of 97 to 98.5 °C.
